Measurements as given in patent US11242340B2, “Crystal forms of demethyleneberberine hydrochloride and preparation method therefor” (priority 2018, dated 2022).
Entries after “also recorded” stand apart in the source; their conditions may differ. Counter-ions that a name gives are not always drawn. Like-named read-outs stand apart in the source and are kept apart here.

Columns and labels:
[1] = Stability in high-temperature experiment (60±2° C.); type: physicochemical; details: for X-Ray Powder Diffraction / Content (%) / Content of Relevant Substance (%) / Stability in the high-temperature environment: 60±2° C.; for Stability in the high-temperature environment / Stability under stability test conditions (summary): hydrochloride; for Stability under stability test conditions (summary): summary over high temperature, high humidity and strong light irradiation
Procedure: Demethyleneberberine hydrochloride crystals A, B, C and D are taken in an appropriate amount and placed in plates numbered as A1, B1, C1 and D1 respectively, and then the plates are placed in a high-temperature environment at 60±2° C. respectively for stability test.

[2] = Stability in high-humidity experiment (RH90±5%); type: physicochemical
Source text: Demethyleneberberine hydrochloride crystals A, B, C and D are taken in an appropriate amount and placed in plates numbered as A2, B2, C2 and D2 respectively, and then the plates are placed in a high-humidity environment at RH90±5% respectively for stability test.

[3] = Stability in strong light irradiation experiment (4,500 lx±500 lx); type: physicochemical; details: for Stability in the strong light irradiation environment: hydrochloride
Source text: Demethyleneberberine hydrochloride crystals A, B, C and D are taken in an appropriate amount and placed in plates numbered as A3, B3, C3 and D3 respectively, and then the plates are placed in a strong light irradiation environment at 4,500 lx±500 lx respectively for stability test.

[4] = Solubility in water system at different temperatures, HPLC; type: physicochemical; details: hydrochloride; for Solubility comparison of the four crystal forms (summary): summary over water, methanol and ethanol systems; for Solubility ranking among the four crystal forms: water system, different temperatures, FIG. 13
Procedure: Demethyleneberberine hydrochloride crystals A, B, C and D are taken in an appropriate amount and the solubility of demethyleneberberine hydrochloride crystals A, B, C and D at different temperatures in a water system is studied respectively. 20 μl of sample is taken at each temperature node and detected by HPLC.

[5] = Solubility in methanol system at different temperatures, HPLC; type: physicochemical; details: FIG. 14, hydrochloride
Procedure: Demethyleneberberine hydrochloride crystals A, B, C and D are taken in an appropriate amount and the solubility of demethyleneberberine hydrochloride crystals A, B, C and D at different temperatures in a methanol system is studied respectively. 20 μl of sample is taken at each temperature node and detected by HPLC.

[6] = Solubility in ethanol system at different temperatures, HPLC; type: physicochemical; details: FIG. 15, hydrochloride
Procedure: Demethyleneberberine hydrochloride crystals A, B, C and D are taken in an appropriate amount and the solubility of demethyleneberberine hydrochloride crystals A, B, C and D at different temperatures in an ethanol system is studied respectively. 20 μl of sample is taken at each temperature node and detected by HPLC.

[7] = Determination of blood concentration in rats after ig administration; type: in vivo; details: ig 200 mg/kg, plasma; for AUC: calculated from the experimental results
Procedure: Male SD rats are adaptively bred for 3 days, and rats having (220±20) g body weight are selected and divided into 5 groups, namely, blank group, demethyleneberberine hydrochloride crystal form A group, demethyleneberberine hydrochloride crystal form B group, demethyleneberberine hydrochloride crystal form C group and demethyleneberberine hydrochloride crystal form D group. Food supply is stopped for 12 h for gastric emptying before the experiment. For the rats in the experimental groups, ig (intragastric) administration dosage is 200 mg/kg. 0.2 ml of blood is taken from the orbits of the rats at 5 min., 15 min., 30 min., 1 h, 2 h, 6 h and 12 h respectively after ig administration, the whole blood is centrifuged, and 100 μl of plasma is taken and frozen at −20° C. for use later. 100 μl of plasma sample is taken, 200 μl of methanol is added into the plasma sample, the mixture is vortexed for 5 min., and then centrifuged at 10,000 r/min. for 15 min. in a centrifuge; the supernatant is taken and tested by HPLC. […] Through calculation on the basis of the experimental results, it is determined: DAUC=3.675 μg×ml^−1×h>AAUC=1.247 μg×ml^−1×h>BAUC=1.150 μg×ml^−1×h>CAUC=1.077 μg×ml^−1×h.

[8] = day 0, listed as A1, hydrochloride
[9] = day 5, listed as A1, hydrochloride
[10] = day 10, listed as A1, hydrochloride
[11] = day 0, listed as A2, hydrochloride
[12] = day 5, listed as A2, hydrochloride
[13] = day 10, listed as A2, hydrochloride
[14] = day 0, listed as A3, hydrochloride
[15] = day 5, listed as A3, hydrochloride
[16] = day 10, listed as A3, hydrochloride
[17] = day 0, listed as B1, hydrochloride
[18] = day 5, listed as B1, hydrochloride
[19] = day 10, listed as B1, hydrochloride
[20] = day 0, listed as B2, hydrochloride
[21] = day 5, listed as B2, hydrochloride
[22] = day 10, listed as B2, hydrochloride
[23] = day 0, listed as B3, hydrochloride
[24] = day 5, listed as B3, hydrochloride
[25] = day 10, listed as B3, hydrochloride
[26] = day 0, listed as C1, hydrochloride
[27] = day 5, listed as C1, hydrochloride
[28] = day 10, listed as C1, hydrochloride
[29] = day 0, listed as C2, hydrochloride
[30] = day 5, listed as C2, hydrochloride
[31] = day 10, listed as C2, hydrochloride
[32] = day 0, listed as C3, hydrochloride
[33] = day 5, listed as C3, hydrochloride
[34] = day 10, listed as C3, hydrochloride

COc1ccc2cc3[n+](cc2c1OC)CCc1cc(O)c(O)cc1-3 [crystal form A, demethyleneberberine hydrochloride]
X-Ray Powder Diffraction ([1]; day 0): Unchanged | Content (%) [1, 8]: 99.62% | Content of Relevant Substance (%) [1, 8]: 0.38% | X-Ray Powder Diffraction ([1]; day 5): Unchanged | Content (%) [1, 9]: 99.63% | Content of Relevant Substance (%) [1, 9]: 0.37% | Content (%) [1, 10]: 99.61% | Content of Relevant Substance (%) [1, 10]: 0.39% | X-Ray Powder Diffraction [1, 10]: Unchanged | Stability in the high-temperature environment [1]: relatively stable | Stability under stability test conditions (summary) [1]: stable | Stability in the high-humidity environment [2]: relatively stable | X-Ray Powder Diffraction ([2]; day 0): Unchanged | Content (%) [2, 11]: 99.62% | Content of Relevant Substance (%) [2, 11]: 0.38% | X-Ray Powder Diffraction ([2]; day 5): Unchanged | Content (%) [2, 12]: 99.58% | Content of Relevant Substance (%) [2, 12]: 0.42% | X-Ray Powder Diffraction ([2]; day 10): Unchanged | Content (%) [2, 13]: 99.60% | Content of Relevant Substance (%) [2, 13]: 0.40% | X-Ray Powder Diffraction ([3]; day 0): Unchanged | Content (%) [3, 14]: 99.62% | Content of Relevant Substance (%) [3, 14]: 0.38% | X-Ray Powder Diffraction ([3]; day 5): Unchanged | Content (%) [3, 15]: 99.61% | Content of Relevant Substance (%) [3, 15]: 0.39% | Content (%) [3, 16]: 99.60% | Content of Relevant Substance (%) [3, 16]: 0.40% | X-Ray Powder Diffraction [3, 16]: Unchanged | Stability in the strong light irradiation environment [3]: relatively stable | Solubility comparison of the four crystal forms (summary) [4]: >solubility of crystal form D of demethyleneberberine hydrochloride | Solubility ranking among the four crystal forms [4]: >solubility of crystal form D of demethyleneberberine hydrochloride | Solubility ranking among the four crystal forms [5]: >solubility of crystal form D of demethyleneberberine hydrochloride | Solubility ranking among the four crystal forms [6]: >solubility of crystal form D of demethyleneberberine hydrochloride | AUC ([7]; male SD rats, hydrochloride): 1.247 µg·h/mL | Cmax ([7]; male SD rats, hydrochloride): 0.292 µg/mL

COc1ccc2cc3[n+](cc2c1OC)CCc1cc(O)c(O)cc1-3 [crystal form B, demethyleneberberine hydrochloride]
X-Ray Powder Diffraction ([1]; day 0): Unchanged | Content (%) [1, 17]: 99.82% | Content of Relevant Substance (%) [1, 17]: 0.18% | X-Ray Powder Diffraction ([1]; day 5): Unchanged | Content (%) [1, 18]: 99.62% | Content of Relevant Substance (%) [1, 18]: 0.38% | Content (%) [1, 19]: 99.67% | Content of Relevant Substance (%) [1, 19]: 0.33% | X-Ray Powder Diffraction [1, 19]: Unchanged | Stability in the high-temperature environment [1]: relatively stable | Stability under stability test conditions (summary) [1]: stable | Stability in the high-humidity environment [2]: relatively stable | X-Ray Powder Diffraction ([2]; day 0): Unchanged | Content (%) [2, 20]: 99.58% | Content of Relevant Substance (%) [2, 20]: 0.42% | X-Ray Powder Diffraction ([2]; day 5): Unchanged | Content (%) [2, 21]: 99.60% | Content of Relevant Substance (%) [2, 21]: 0.40% | X-Ray Powder Diffraction ([2]; day 10): Unchanged | Content (%) [2, 22]: 99.56% | Content of Relevant Substance (%) [2, 22]: 0.44% | X-Ray Powder Diffraction ([3]; day 0): Unchanged | Content (%) [3, 23]: 99.58% | Content of Relevant Substance (%) [3, 23]: 0.42% | X-Ray Powder Diffraction ([3]; day 5): Unchanged | Content (%) [3, 24]: 99.77% | Content of Relevant Substance (%) [3, 24]: 0.23% | Content (%) [3, 25]: 99.67% | Content of Relevant Substance (%) [3, 25]: 0.33% | X-Ray Powder Diffraction [3, 25]: Unchanged | Stability in the strong light irradiation environment [3]: relatively stable | Solubility comparison of the four crystal forms (summary) [4]: >solubility of crystal form A of demethyleneberberine hydrochloride | Solubility ranking among the four crystal forms [4]: >solubility of crystal form A of demethyleneberberine hydrochloride | Solubility ranking among the four crystal forms [5]: >solubility of crystal form A of demethyleneberberine hydrochloride | Solubility ranking among the four crystal forms [6]: >solubility of crystal form A of demethyleneberberine hydrochloride | AUC ([7]; male SD rats, hydrochloride): 1.150 µg·h/mL | Cmax ([7]; male SD rats, hydrochloride): 0.642 µg/mL | tmax ([7]; male, SD, rat, po, 200 mg/kg, read-out: tmax): 1 h

COc1ccc2cc3[n+](cc2c1OC)CCc1cc(O)c(O)cc1-3 [crystal form C, demethyleneberberine hydrochloride]
X-Ray Powder Diffraction ([1]; day 0): Unchanged | Content (%) [1, 26]: 99.18% | Content of Relevant Substance (%) [1, 26]: 0.82% | X-Ray Powder Diffraction ([1]; day 5): Unchanged | Content (%) [1, 27]: 99.21% | Content of Relevant Substance (%) [1, 27]: 0.79% | Content (%) [1, 28]: 99.19% | Content of Relevant Substance (%) [1, 28]: 0.81% | X-Ray Powder Diffraction [1, 28]: Unchanged | Stability in the high-temperature environment [1]: relatively stable | Stability under stability test conditions (summary) [1]: stable | Stability in the high-humidity environment [2]: relatively stable | X-Ray Powder Diffraction ([2]; day 0): Unchanged | Content (%) [2, 29]: 99.77% | Content of Relevant Substance (%) [2, 29]: 0.23% | X-Ray Powder Diffraction ([2]; day 5): Unchanged | Content (%) [2, 30]: 99.72% | Content of Relevant Substance (%) [2, 30]: 0.28% | X-Ray Powder Diffraction ([2]; day 10): Unchanged | Content (%) [2, 31]: 99.57% | Content of Relevant Substance (%) [2, 31]: 0.43% | X-Ray Powder Diffraction ([3]; day 0): Unchanged | Content (%) [3, 32]: 99.57% | Content of Relevant Substance (%) [3, 32]: 0.43% | X-Ray Powder Diffraction ([3]; day 5): Unchanged | Content (%) [3, 33]: 99.49% | Content of Relevant Substance (%) [3, 33]: 0.51% | Content (%) [3, 34]: 99.55% | Content of Relevant Substance (%) [3, 34]: 0.45% | X-Ray Powder Diffraction [3, 34]: Unchanged | Stability in the strong light irradiation environment [3]: relatively stable | Solubility comparison of the four crystal forms (summary) [4]: highest; also recorded: >solubility of crystal form B of demethyleneberberine hydrochloride | Solubility ranking among the four crystal forms [4]: >solubility of crystal form B of demethyleneberberine hydrochloride | Solubility ranking among the four crystal forms [5]: >solubility of crystal form B of demethyleneberberine hydrochloride | Solubility ranking among the four crystal forms [6]: >solubility of crystal form B of demethyleneberberine hydrochloride | AUC ([7]; male SD rats, hydrochloride): 1.077 µg·h/mL | Cmax ([7]; male SD rats, hydrochloride): 1.262 µg/mL | tmax ([7]; male SD rats, hydrochloride): 0.5 h
